{"source": "patent US20120042398A1", "about": "“COMPOSITIONS FOR LABELING AND IDENTIFYING AUTOPHAGOSOMES AND METHODS FOR MAKING AND USING THEM” (SAN DIEGO STATE UNIVERSITY (SDSU) FOUNDATION, priority 2008, published 2012)", "key": {"[1]": {"test": "Fluorophore properties (pKa, pH stability, photostability, storage stability)", "assay_type": "physicochemical", "conditions": "for photostability / photobleaching: normal fluorescence exposure"}, "[2]": {"conditions": "cited from earlier work"}, "HL-1 cells": {"tested_on": "HL-1 cells", "test": "High-throughput cadaverine plate-reader assay of autophagy (ALEXAFLUOR488-cadaverine fluorescence)", "assay_type": "cell-based, Mouse", "conditions": "FIG. 1", "experimental": "For 24 Well Plates: • Plate 75,000 cells per well • Wait for cells to achieve approximately 80% confluence (approximately 1 day) • Treat cells (3 h 30 min starvation, 3 mL of medium) • Rinse cells with PBS (1 ml) • Incubate cells with probe for 10 minutes at 37° C. • Wash cells four times with PBS (1 mL) • Lyse cells by incubating in 10 mM Tris-Cl pH 8 containing 0.1% Triton X-100 for 20 minutes (500 uL) • Measure fluorescence in plate reader • Add ethidium bromide to a final concentration of 0.2 mM and measure fluorescence (exc=530 nm; em=590 nm) • Normalize results to the number of cells (ethidium bromide reading)\nProbes: • ALEXAFLUOR488™ cadaverine (A30676, Invitrogen, Carlsbad, Calif.) • Final concentration 25 uM, exc=493 nm; em=516 nm. • BODIPY TR™ cadaverine (D6251, Invitrogen, Carlsbad, Calif.) • Final concentration 125 nM, exc=588 nm; em=616 nm."}, "autophagic vesicles (AV)": {"tested_on": "autophagic vesicles (AV)", "test": "MDC staining of AV in cell or tissue preparations", "assay_type": "cell-based", "text": "Initial synthesis of autophagic specific dyes of this invention was based on MDC. […] In alternative embodiments, dyes used in compositions of this invention are vesicle selective, have multiple fluorescent excitation/emission spectra and can be used for several imaging applications. Thus, the new dyes of this invention will greatly benefit autophagy research."}, "[3]": {"tested_on": "mCherry-LC3 puncta (autophagosomes) in heart", "test": "MDC labeling of cardiac tissue in mCherry-LC3 mice", "assay_type": "in vivo", "conditions": "MDC 1.5 mg/kg i.p. 1 hr before sacrifice, heart sections", "experimental": "To examine its labeling profile in cardiac tissues, mCherry-LC3 mice were injected with MDC (1.5 mg/kg i.p.) 1 hr before being sacrificed, e.g., see Iwai-Kanai (2008) supra, Yitzhaki (2009) Basic Res. Cardiol. 104:157-167. Hearts were collected and frozen tissues sections prepared for imaging. Under conditions where autophagy is activated and mCherry-LC3 puncta formed, MDC-labeled structures were similarly up regulated, see FIG. 4, and see e.g. Iwai-Kanai (2008) supra. MDC labeled a subset of mCherry-LC3-positive structures, presumably fused autolysosome vesicles.\nFIG. 4 illustrates three images, including mCherry and MDC labeling of vesicles. mCherry-LC3 expressing mice were treated with rapamycin and hearts prepared for fluorescent imaging. […] The right image of FIG. 4 is a merge of the mCherry-LC3 and MDC images."}, "[4]": {"tested_on": "autophagic vesicles (AV) in fat body tissue", "test": "Staining of fresh Drosophila larval fat body tissue (AV labeling)", "assay_type": "cell-based", "conditions": "10 μM dye, 10 min", "experimental": "Staining of Drosophila Tissues. To perform a rapid first-pass examination of the compounds ability to stain AV we examined fat body tissues from wandering 3rd instar Drosophila larvae. 1 mM DMSO stock solutions were prepared for each compound and stored at −20° C. Fat body tissue from wild type fly larvae were dissected from the surrounding cuticle and organs, and placed in 1 ml iced PBS solution. Tissues were immediately stained for 10 min, in a final 10 μM concentration for each dye. Samples were rinsed twice with 1×PBS, mounted with VECTASHIELD™ (Vector Laboratories, Inc, Burlingame, Calif.) and immediately imaged using a scanning confocal fluorescent microscope (Leica, FITC channel). As a positive control, fly tissues (3rd instar) were also stained with BODIPY-TexasRed-cadaverine (Invitrogen, red)."}, "[5]": {"tested_on": "autophagosomes in heart tissue", "test": "Heart perfusion with BODIPY-TR-cadaverine, dye incorporation into autophagosomes read in plate reader", "conditions": "perfused hearts, FIG. 2", "experimental": "1) Mince 1-5 mm^3 tissue sample in 1-2 mL homogenization buffer in 35 mm dish 2) Polytron at ½ speed, 5 sec, on ice in 15 mL round bottom polypropylene tube 3) Spin out nuclei and heavy membranes @ 1000 g, 5 min, 4° C. in 15 mL Falcon tube 4) Move post-nuclear supernatant into 1.5 mL Eppendorf tube 5) Add MDC (or Cadaverine 488) to final concentration of 25 μM 6) Incubate on ice 10 min protected from light 7) Spin sample 20,000×g, 20 min, 4° C. 8) Aspirate supernatant and rinse off pellet with 1 mL cold resuspension buffer 2×'s 9) Resuspend pellet in 350 μL resuspension buffer until mixed evenly 10) Add 100 μL per well in triplicate to black 96-well plate 11) Read on Fluorescence plate reader @ excitation/emission 495 nm/519 nm 12) Use remaining sample to run Bradford assay to quantify protein concentration.\nThe hearts were perfused with BODIPY-TR™-cadaverine followed by washout, then homogenized and fluorescence read in plate reader. […] FIG. 2 right image is a graph illustrating quantitation of dye incorporation into autophagosomes, with the left column graphically quantitating the upper left image's fluorescence and the right column graphically quantitating the lower left image's (the Tat-Atg5(K130R)-inhibited) fluorescence."}, "[6]": {"tested_on": "autophagic vesicles in Atg1-/- fat body tissue", "test": "FITC-TG / LYSOTRACKER staining of Atg1-/- mutant fat body tissue", "assay_type": "cell-based, Drosophila", "conditions": "starvation and hormone-dependent induction", "experimental": "These studies indicates the FITC-dyes highlight a population of vesicles that are distinct from LYSOTRACKER™ and could be used to study the early in vivo formation, maturation and fusion events of AV within cells. To further confirm the specificity of the FITC-TG AV staining, fat body tissue was prepared from Atg1−/− larvae and compared with wild type controls. Signaling of the Atg1 protein kinase is essential for pathway induction and AV formation, see e.g., (21, 57). In Drosophila loss-of-function mutations in this gene result in late pupal lethality but have a minor impairment on early development, thus providing sufficient material for imaging studies. […] This staining pattern is consistent with lysosomes maturing from the endosomal pathway but AV failing to be formed under normal physiological conditions. FIG. 8 illustrates images of stained tissues from: Fed (left column images), fasted (middle column images) and hormone-induced (“3rd instar” right column images) autophagy profiles in wildtype (upper row images) and Atg1−/− mutant (lower row images) cells. Fat body tissue from larvae that were fed, fasted or undergoing hormone-induced autophagy were collected and stained with LYSOTRACKER™ (red) and the exemplary FITC-TG (green). […] While LYSOTRACKER™ puncta are detected (red) in these Atg1^−/− mutant tissues, the exemplary FITC-TG dye fails to stain autophagosomes or autolysosomes."}}}
{"smiles": "O=C1OC2(c3cc(F)c(O)cc3Oc3cc(O)c(F)cc32)c2ccccc21", "note": "[Oregon Green 488, Difluoro-fluorescein]", "values": [{"measurement": "photostability / photobleaching", "setting": "[1]", "value": "excellent photostability"}, {"measurement": "pKa", "setting": "[2]", "value": 4.7}]}
{"smiles": "CO/C1=C\\C(C)=C\\[C@@H](C)[C@@H](O)[C@@H](C)C/C(C)=C/C=C/[C@H](OC)[C@@H]([C@@H](C)[C@@H](O)[C@H](C)[C@@]2(O)C[C@@H](O)[C@H](C)[C@@H](C(C)C)O2)OC1=O", "note": "[Bafilomycin A1]", "values": [{"measurement": "effect on starvation-increased autophagy (relative ALEXAFLUOR488-cadaverine fluorescence normalized to cell number)", "setting": "HL-1 cells", "value": "partially blocked"}]}
{"smiles": "CCN(CC)CCCC(C)Nc1ccnc2cc(Cl)ccc12", "note": "(centres unmarked) [chloroquine]", "values": [{"measurement": "effect on starvation-increased autophagy (relative ALEXAFLUOR488-cadaverine fluorescence normalized to cell number)", "setting": "HL-1 cells", "value": "partially blocked"}]}
{"smiles": "CN(C)c1cccc2c(S(=O)(=O)NCCCCCN)cccc12", "note": "[MDC, monodansylcadaverine]", "values": [{"measurement": "usability on fixed samples", "setting": "autophagic vesicles (AV)", "value": "cannot be used on fixed samples"}, {"measurement": "co-localization of MDC labeling with mCherry-LC3 puncta", "setting": "[3]", "value": "excellent co-localization"}, {"measurement": "stability during storage", "setting": "[1]", "value": "stability issues during storage"}, {"measurement": "photostability / photobleaching", "setting": "[1]", "value": "significant photobleaching"}]}
{"smiles": "Cl.NCCCCCNC(=O)COc1ccc(C2=[N+]3C(=Cc4ccc(-c5cccs5)n4[B-]3(F)F)C=C2)cc1", "note": "[BODIPY-cadaverine, 5-(((4-(4,4-difluoro-5-(2-thienyl)-4-bora-3a,4a-diaza-s-indacene-3-yl)phenoxy)acetyl)amino)pentylamine, hydrochloride]", "values": [{"measurement": "staining of intracellular vesicles / cytoplasmic puncta in fresh tissue", "setting": "[4]", "value": "robust staining pattern"}]}
{"smiles": "Nc1ccc(S(=O)(=O)Nc2ccnn2-c2ccccc2)cc1", "note": "[Sulfaphenazole]", "values": [{"measurement": "effect on autophagy (BODIPY-TR-cadaverine incorporation into autophagosomes)", "setting": "[5]", "value": "potent inducer of autophagy"}]}
{"smiles": "CN(C)CCNC(=O)CCc1ccc2n1[B-](F)(F)[N+]1=C(c3ccc[nH]3)C=CC1=C2", "note": "[LYSOTRACKER™]", "values": [{"measurement": "vesicle staining in Atg1-/- flies", "setting": "[6]", "value": "some LYSOTRACKER™ positive staining"}]}
